Assay results published in patent publication US20100093624A1, “PEPTIDE THERAPEUTICS THAT BIND VEGF AND METHODS OF USE THEREOF” (Cosmix Therapeutics LLC, priority 2008, published 2010).
Entries after “also recorded” stand apart in the source; their conditions may differ. Non-standard residues stand in square brackets, D forms with d. Residues, ends and D or L forms follow the SMILES beside them. No end group written: not given here. PEG = not defined here

Columns and labels:
[1] = test system: VEGF-dependent cell growth; assay: VEGF-dependent cell growth assay; assay type: cell-based
HUVEC cells = assay: HUVEC cell-proliferation assay; assay type: cell-based, human; settings: for inhibition of HUVEC growth: tritium-labeled thymidine
Excerpt: Initial investigation into the biological activity of the peptides involved use of a HUVEC cell-proliferation assay. A contractor (ReliaTech, Braunschweig, Germany) with considerable experience in this assay was employed to carry it out. ReliaTech's assay employed a radiation-based system to detect cell growth by monitoring DNA synthesis using tritium-labeled thymidine.
In this assay, pregrown, starved HUVEC cells proliferate in response to exposure to VEGF or bFGF. Inhibition of VEGF activity will result in a measurable decrease in cell proliferation. […] The effects seen for other peptide sequences were attributed to the DMSO content of their stock solutions (DMSO was required to solubilize all peptides in this assay except for 07-D60).

D-VEGF [2] = assay: ELISA of L-peptides from affinity maturation selection; assay type: binding; settings: 25 nM, also 5M, 100 nM, 50 nM and 5 nM
Procedure: FIG. 15 depicts an ELISA analysis of peptides deriving from sequences of the affinity maturation mRNA display selection at 25 nM. […] Then the plates were incubated with 25 nM of peptides 07-007, 07-071 and 07-072 respectively in HBS buffer for one hour at room temperature followed by 4× washes with HBS buffer. Detection with Streptavidin-Peroxidase stained with o-Phenylendiamin and H2O2 for 3 minutes.
Then the plates were incubated with either 5 μM or 100 nM of peptides 07-007, 07-071 and 07-072 respectively in HBS buffer for one hour at room temperature followed by 4× washes with HBS buffer. Detection with Streptavidin-Peroxidase stained with o-Phenylendiamin and H2O2 for 3 minutes.
Then the plates were incubated either with 50 nM or 5 nM of peptides 07-007, 07-071 and 07-072 respectively in HBS buffer for one hour at room temperature followed by 4× washes with HBS buffer. Detection with Streptavidin-Peroxidase stained with o-Phenylendiamin and H2O2 for 3 minutes.
Then the plates were incubated with 25 nM of peptides 07-007, 07-071 and 07-072 respectively in HBS buffer for one hour at room temperature followed by 4× washes with HBS buffer.

[3] = biological target: T1, rh-VEGF165 binding to Flt-1 (Homo sapiens, UniProt P15692); assay: Receptor ELISA (Flt-1)
T1 sequence (P15692 27-191 isoform P15692-4 limits assumed): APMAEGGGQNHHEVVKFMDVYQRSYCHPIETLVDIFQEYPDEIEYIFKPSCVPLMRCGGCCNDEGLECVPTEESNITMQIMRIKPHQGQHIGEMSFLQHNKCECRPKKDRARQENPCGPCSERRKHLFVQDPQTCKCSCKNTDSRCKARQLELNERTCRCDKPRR
Excerpt: VEGF acts on two distinct receptors in-vivo, Flt-1 (VEGFR1) and KDR (VEGFR2). The majority of pro-angiogenic signaling appears to be mediated by KDR. Flt-1 binds to VEGF isoforms with a higher affinity than KDR and may serve a largely regulatory role in vivo. […] These studies have been extended using ELISA assays on VEGF Flt-1 binding. In this experiment a soluble fusion of Flt-1 was coated onto Costar ELISA plates. After blocking (2% BSA), solutions of rh-VEGF165 containing serial dilutions of peptide test articles were added. Detection was accomplished using a biotinylated anti-VEGF antibody in combination with a streptavidin-HRP conjugate. The results of the Flt-1 assay are shown in FIG. 6 along with previous results from the analogous KDR assay for comparison.

VEGF165 binding to KDR = biological target: T2, VEGF165 binding to KDR (Homo sapiens, UniProt P15692); assay: Receptor ELISA (KDR)
T2 sequence (P15692 27-191 isoform P15692-4 limits assumed): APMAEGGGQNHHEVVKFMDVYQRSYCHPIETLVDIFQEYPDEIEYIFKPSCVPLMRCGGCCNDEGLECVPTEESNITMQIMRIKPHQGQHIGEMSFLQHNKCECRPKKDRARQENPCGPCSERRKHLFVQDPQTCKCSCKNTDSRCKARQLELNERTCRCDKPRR

VEGF165 [4] = biological target: T3, VEGF165 (Homo sapiens, UniProt P15692); assay: VEGF ELISA of biotin-tagged D-peptides; assay type: binding; settings: VEGF165 coated wells, streptavidin/HRP detection
T3 construct: purchased
T3 sequence (P15692 27-191 isoform P15692-4 limits assumed): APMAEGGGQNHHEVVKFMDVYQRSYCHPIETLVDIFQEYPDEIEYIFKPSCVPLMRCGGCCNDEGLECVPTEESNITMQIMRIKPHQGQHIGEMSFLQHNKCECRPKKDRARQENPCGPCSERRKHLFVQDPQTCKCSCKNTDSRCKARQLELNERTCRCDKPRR
Procedure: An ELISA method was developed in which commercially available VEGF165 was coated into ELISA plate wells (MaxiSorb). Biotin-tagged D-peptides (or an anti-VEGF monoclonal antibody, BAF293, R & D Systems) were then added. After washing binding of peptides or antibody to VEGF was determined by treatment with a streptavidin/HRP conjugate which allows colorimetric detection of the presence of the biotin tagged peptides or antibody (see FIG. 3).

D-VEGF [5] = assay: Equilibrium bead-binding assay; settings: bead-bound peptide, silver-stained SDS-PAGE
Procedure: (§1) A quick, qualitative binding assay was devised in which biotin-tagged peptides are immobilized onto streptavidin-coated magnetic beads. The bead-bound peptides are then treated with VEGF (either synthetic or commercially available VEGF 165). After washing the beads are then boiled in denaturing buffer to release bound VEGF which is then detected by silver-stained SDS-PAGE gel (see FIG. 4).

VEGF165 [6] = biological target: T3, VEGF165; assay: Equilibrium bead-binding assay; settings: bead-bound peptide, silver-stained SDS-PAGE
Procedure: as §1

L-VEGF = biological target: T4, L-VEGF (Homo sapiens, UniProt P15692); assay: Equilibrium bead-binding assay; settings: bead-bound peptide, silver-stained SDS-PAGE
T4 construct: VEGF (8-50)-thioester; VEGF (51-101)-thioester; made in house; host or cells: chemical synthesis (Boc SPPS, ligation of two peptides, oxidative folding)
T4 sequence (P15692 214-315): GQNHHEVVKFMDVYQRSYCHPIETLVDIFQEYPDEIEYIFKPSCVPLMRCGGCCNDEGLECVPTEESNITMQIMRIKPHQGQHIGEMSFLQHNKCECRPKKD
Procedure: as §1

[7] = biological target: D-VEGF (synthetic VEGF receptor binding domain, residues 8-109, made of D-amino acids) (Homo sapiens (Human)) (UniProt P15692); assay: judged from ELISA signals on coated D-VEGF at 5 nM to 5 uM peptide; reference 07-007

Molecule: NALHWVCASNICWRSPWAGRLWGLVRL [Peptide G2306]
- inhibition in a VEGF-dependent cell growth assay [1]: effective dose-dependent inhibition

Molecule: GNALHWVCASNICWRPPWAGRLWGLVRLT [Peptide 07-D60, a modification of G2257]
- inhibition of HUVEC growth compared with Avastin (HUVEC cells; 10 micromolar peptide vs 67 nM Avastin): approaches that for 67 nM Avastin
- inhibition of HUVEC growth (HUVEC cells): inhibit HUVEC growth in a dose dependent manner; also recorded: inhibit HUVEC cell growth; also recorded: block HUVEC growth in a dose-dependent manner

Molecule: H2N-SGSSSGSGSGNALHWVCASNICWRTPWAGQLWRLVRLT-PEG-Bio (H-SGSSSGSGSGNALHWVCASNICWRTPWAGQLWRLVRLT-{PEG-biotin}; cysteine pairing not given here; reading uncertain) [Peptide 07-072]
- affinity towards D-VEGF in comparison to the non-matured sequence deriving from G2306 (D-VEGF [2]): vast improvement

Molecule: GNALHWVCASNICWRPPWAGRLWGLVRLT [Peptide G2257]
- inhibition of VEGF binding to Flt-1 [3]: inhibition of VEGF binding; also recorded: inhibits binding
- inhibition of VEGF binding to KDR (VEGF165 binding to KDR; receptor ELISA): inhibition of VEGF binding; also recorded: capable of inhibiting VEGF binding to KDR; also recorded: inhibits binding

Molecule: Avastin: Genentech's anti-VEGF antibody [reference compound]
- inhibition of HUVEC growth (HUVEC cells): strong inhibition

Molecule: GVQEDVSSTLGSWVLLPFHRGTRLSVWVT (also: biotinylated form, place not given here) [G2211/2226]
- binding to VEGF165 (VEGF165 [4]): bind tightly
- binding to VEGF165 (VEGF165 [4]; listed as G2211/G2226): bind to VEGF165 selectively

Molecule: CC(C)C[C@@H](NC(=O)[C@@H](CCCNC(=N)N)NC(=O)[C@H](NC(=O)CNC(=O)[C@@H](CCCNC(=N)N)NC(=O)[C@@H](Cc1c[nH]cn1)NC(=O)[C@@H](Cc1ccccc1)NC(=O)[C@H]1CCCN1C(=O)[C@@H](CC(C)C)NC(=O)[C@@H](CC(C)C)NC(=O)[C@H](NC(=O)[C@@H](Cc1c[nH]c2ccccc12)NC(=O)[C@@H](CO)NC(=O)CNC(=O)[C@@H](CC(C)C)NC(=O)[C@H](NC(=O)[C@@H](CO)NC(=O)[C@@H](CO)NC(=O)[C@H](NC(=O)[C@@H](CC(=O)O)NC(=O)[C@@H](CCC(=O)O)NC(=O)[C@@H](CCC(N)=O)NC(=O)[C@H](NC(=O)CN)C(C)C)C(C)C)[C@H](C)O)C(C)C)[C@H](C)O)C(=O)N[C@H](CO)C(=O)N[C@@H](C(=O)N[C@H](Cc1c[nH]c2ccccc12)C(=O)N[C@@H](C(=O)N[C@@H](C(N)=O)[C@H](C)O)C(C)C)C(C)C [Peptide G2226] (H-G[dV][dQ][dE][dD][dV][dS][dS][dT][dL]G[dS][dW][dV][dL][dL][dP][dF][dH][dR]G[dT][dR][dL][dS][dV][dW][dV][dT]-NH2; N-terminus and C-terminus assumed)
- activity in cell-based assays (HUVEC cells): does not appear to be active
- binding to VEGF165 (VEGF165 [4]): bind tightly; also recorded: best affinity
- binding to D-VEGF (D-VEGF [5]): no detectable affinity
- binding to commercially available VEGF 165 (VEGF165 [6]): found to bind
- binding to L-VEGF (L-VEGF): binds only to L-VEGF; also recorded: found to bind
- block of VEGF binding in the receptor ELISA (VEGF165 binding to KDR; receptor not specified): does not appear to block VEGF binding

B1: Peptide 07-072 (L-form; variant carrying all three hot spot mutations) (peptide)
peptide: H-SGSSSGSGSGNALHWVCASNICWRTPWAGQLWRLVRLT-{PEG-biotin}
modifications: cysteine pairing not given here; reading uncertain
- fold improvement of affinity (against the non-mutated sequence 07-007) [7]: > 10 >=fold
